These results are taken from article PMC9352027, “Targeting lipid biosynthesis pathways for hepatitis B virus cure” (PLoS ONE, 2022).

The test system of data set [1] is HBeAg in HBV-infected HepG2-NTCP cells. Nature of the data set: microbe, parasite or virus in culture. It counts as cell-based, Hepatitis B virus genotype D (AD38). Conditions: HBV-infected HepG2-NTCP cells, three days of treatment, extracellular; read-out: HBeAg, EC50. On the procedure:
(§1) Production of wild-type HBV virions from HepAD38 cells was performed as previously described. HepG2-NTCP cells were bulk plated on collagen coated flasks at a density of 6x10^6 cells/ T175 flask. Following a 3-day incubation at 37°C, cells were infected with genotype D (AD38) virus at […] in the presence of 4% PEG8000 and 2.5% DMSO. HepG2-NTCP cells were washed 3 times with OPTI-MEM and maintained in Dulbecco’s modified Eagle’s medium (DMEM) supplemented with 2% FBS and 2.5% DMSO for the following 4 days. HBV-infected HepG2-NTCP cells were trypsinized, resuspended in DMEM supplemented with 2% FBS and 1% DMSO, and seeded onto serially diluted small molecule inhibitors at a 0.5% final DMSO concentration (S1 Table) in 384-well collagen coated plates at a density of 20,000 cells/well for 3 additional days.
(§2) Cell culture supernatant (3 μL) was transferred to two 1536-well plates and HBsAg and HBeAg levels subsequently measured by HTRF (Cisbio). HBsAg was measured using Terbium conjugated (XTL-17) and D2 receptor conjugated (XTL19) anti-HBsAg antibodies, while HBeAg was measured using Terbium conjugated (GWB-F19420, Genway Biotech) and D2 receptor conjugated (GWB-24DEF, Genway Biotech) anti-HBeAg antibodies. […] was measured using an Envision plate reader at emissions of 665 nm and 615 nm. The ratio of 665/615 was used to plot compound dose response curves and EC50 values were calculated from the fit of the dose−response curves to a four-parameter equation.
(§3) (A) Schematic overview of the pathways involved in lipid biosynthesis, such as DNL, TG esterification and cholesterol biosynthesis. […] (B-D) HepG2-NTCP cells infected with HBV for three days were treated with selected compounds in an eight-point dose response. After three days of treatment, extracellular HBsAg and HBeAg levels as well as cell viability were measured.

Data set [2] has as its system HBsAg secretion in HBV-infected HepG2-NTCP cells. The data set can be described thus: microbe, parasite or virus in culture. Conditions: HBV-infected HepG2-NTCP cells. It is filed as cell-based, Hepatitis B virus genotype D (AD38). The procedure:
as §1, §2, §3

Data set [3] relates to HBV-infected HepG2-NTCP cells. The data set can be described thus: Cell viability by CellTiter Glo. It counts as cell-based, human. To be noted: three days of treatment. The procedure: as §1
Cells were analyzed for cell viability by addition of CellTiter Glo (Promega) to the assay plates and analyzed using an Envision plate reader (Perkin Elmer). CC50 values were calculated from the fit of the dose−response curves to a four-parameter equation. All CC50 values represent geometric mean values of a minimum of four determinations.
as §3
(Cellular ATP, detected with luciferase, serves as a proxy for viable cell number.)

Another data set concerns HBV genotype C. Nature of the data set: ACC inhibitor efficacy study in HBV-infected chimeric humanized mice: serum viral markers. It counts as in vivo, human liver-chimeric uPA/SCID mice. Conditions: 10 mg/kg oral once daily for four weeks, throughout the study. The procedure: (§4) For the ACC inhibitor efficacy study, HBV-infected mice were randomized into two different treatment groups based on body weight, blood h-Alb, and serum HBV DNA concentrations. All mice had blood h-Alb levels above 12 mg/mL and serum HBV DNA levels above 2.5x10^7 copies/mL. Mice received an oral dose of 10 mg/kg ACC inhibitor or dosing vehicle (vehicle control) once daily for 29 days. ACC inhibitor was dosed in 0.5% sodium carboxymethylcellulose (medium viscosity), 1% w/v ethanol, 98.5% w/v 50 mM Tris buffer, pH 8 in reverse osmosis water (or equivalent). Terminal livers were collected, weighed, and separated into pieces that were flash frozen in liquid nitrogen or immersed in RNAlater solution (Life Technologies, Carlsbad, CA).
(§5) Whole blood h-Alb was determined using (BioMajestyTM Series JCA-BM6050, JEOL Ltd., Tokyo, Japan). Serum human alanine aminotransferase (h-ALT1) concentration was determined based on Enzyme-Linked ImmunoSorbent Assay (ELISA) developed by Institute of Immunology Co., Ltd. (Tokyo, Japan). […] Serum HBsAg and HBeAg concentration were determined by SRL, Inc. (Tokyo, Japan) based on Chemiluminescent Enzyme Immuno Assay (CLEIA) developed by Fujirebio. […] RNA was isolated from RNAlater®-immersed liver samples with RNeasy kit following manufacturer’s instructions (Qiagen). qRT-PCR on the targeted genes was evaluated by Taqman (Assay IDs Hs04984975_m1 (SREBF1), Hs01682761_m1 (SCD), Hs01005622_m1 (FASN), Hs01046047_m1 (ACACA) and normalized to GAPDH endogenous control (Assay ID 4310884E).
(§6) Using the same batch of human hepatocytes and HBV virus used for the metabolomic and RNAseq analyses, mice (n = 7/group) were dosed orally eight weeks post HBV infection with vehicle or 10 mg/kg ACC inhibitor once daily for four weeks. HBV viral markers (HBsAg, HBeAg, and HBV DNA) and liver toxicity markers (ALT, h-Alb) were measured weekly (Fig 5A). On-target activity was evaluated by monitoring changes in triglycerides and liver mRNA expression levels of genes in the targeted pathway (Fig 5A).

The conditions of data set [4]: two hours post dosing. The procedure: For the ACC inhibitor efficacy study, HBV-infected mice were randomized into two different treatment groups based on body weight, blood h-Alb, and serum HBV DNA concentrations. All mice had blood h-Alb levels above 12 mg/mL and serum HBV DNA levels above 2.5x10^7 copies/mL. Mice received an oral dose of 10 mg/kg ACC inhibitor or dosing vehicle (vehicle control) once daily for 29 days. ACC inhibitor was dosed in 0.5% sodium carboxymethylcellulose (medium viscosity), 1% w/v ethanol, 98.5% w/v 50 mM Tris buffer, pH 8 in reverse osmosis water (or equivalent). […]
as §5

Another data set has as its system ACC. The data set can be described thus: On-target activity: serum and liver triglycerides and liver mRNA by qRT-PCR. It counts as in vivo, human liver-chimeric uPA/SCID mice. Conditions: 10 mg/kg oral once daily, versus vehicle. On the procedure: as §4
Whole blood h-Alb was determined using (BioMajestyTM Series JCA-BM6050, JEOL Ltd., Tokyo, Japan). Serum human alanine aminotransferase (h-ALT1) concentration was determined based on Enzyme-Linked ImmunoSorbent Assay (ELISA) developed by Institute of Immunology Co., Ltd. (Tokyo, Japan). The real-time detection PCR to measure the serum HBV DNA concentration was performed using the KUBIX HBV qPCR Kit (KUBIX Inc.) and CFX96 Touch™ Real-Time PCR Detection System. […] Serum HBsAg and HBeAg concentration were determined by SRL, Inc. (Tokyo, Japan) based on Chemiluminescent Enzyme Immuno Assay (CLEIA) developed by Fujirebio. Serum and intrahepatic triglycerides analysis were performed by Skylight Biotech Inc. (Akita, Japan). Terminal plasma and liver were collected 2-hours after ACC inhibitor dose for PK analysis which was performed by Charles River Laboratories (Wilmington, MA). RNA was isolated from RNAlater®-immersed liver samples with RNeasy kit following manufacturer’s instructions (Qiagen). qRT-PCR on the targeted genes was evaluated by Taqman (Assay IDs Hs04984975_m1 (SREBF1), Hs01682761_m1 (SCD), Hs01005622_m1 (FASN), Hs01046047_m1 (ACACA) and normalized to GAPDH endogenous control (Assay ID 4310884E).
as §6

Data set [5] is classed as in vivo, human liver-chimeric uPA/SCID mice. Conditions: 10 mg/kg oral once daily for four weeks. On the procedure: All animal work was performed by PhoenixBio Co, Ltd (Higashi-Hiroshima City, Japan). Detailed observations of general condition and individual body weights were conducted once daily throughout the in-life phase. All animal protocols were performed in accordance with the Guide for the Care and Use of Laboratory Animals and approved by the Animal Welfare Committee of Phoenix Bio Co., Ltd. All mice were housed individually and maintained in accordance with the Animal Ethics Committee of PhoenixBio (resolution #2518 and 2552). All surgery was performed under isoflurane anesthesia, and all efforts were made to minimize suffering. On Day 17, Animal ID No. 107 (vehicle-treated) was found dead.

The subject of the next data set is DNL in HepG2 cells. Set-up: method as in PMID 32376414, doi:10.1002/hep.31579. To be noted: cited from earlier work.
In data set [6] the test system is triglyceride accumulation in HepG2 cells. The arrangement: method as in PMID 32376414, doi:10.1002/hep.31579. Conditions: read-out: palmitic acid-induced triglyceride accumulation EC50; cited from earlier work.
The subject of a further data set is ACC1 and ACC2. The arrangement: method as in PMID 29705265, PMID 30059671. To be noted: cited from earlier work.
Data set [7] deals with HBsAg secretion in Hep3B cells. Set-up: method as in PMID 14517078. Conditions: depletion of cellular cholesterol; cited from earlier work.

SMILES strings stand for the structures. pEC50: −log10 of the molar value.

As a reminder, the pEC50 is the negative decadic logarithm of the EC50, by convention in mol/L. In general, CC50 refers to the concentration giving 50% cytotoxicity.

Regarding `COc1ccccc1[C@H](Cn1c(=O)n(C(C)(C)C(=O)O)c(=O)c2c(C)c(-c3ncco3)sc21)O[C@H]1CC[C@@H](O)CC1` [ACC inhibitor, 2-(1-((R)-2-(((1s,4S)-4-hydroxycyclohexyl)oxy)-2-(2-methoxyphenyl)ethyl)-5-methyl-6-(oxazol-2-yl)-2,4-dioxo-1,4-dihydrothieno[2,3-d]pyrimidin-3(2H)-yl)-2-methylpropanoic acid], the pEC50 in data set [1] is 5.02. Moreover, the “selectivity HBsAg versus HBeAg” value in [2] is “inhibition of HBeAg but at a higher concentration than HBsAg”. Also, the “inhibition of HBsAg secretion” value in [2] (maximal (up to)) is recorded as “up to 80%”. Besides, the pEC50 in [2] (three days of treatment, extracellular, read-out: HBsAg, EC50) is 7.54. This molecule yielded a 50% cytotoxic concentration (CC50) in [3] above 10 µM. For the same molecule, in the data set on HBV genotype C, the “reduction in serum HBV DNA levels” value was “no reduction”, the “reduction in serum HBeAg levels” value is “no reduction” and the “reduction in serum HBsAg levels” value is “no reduction”. The “Liver exposure over protein-adjusted EC50 (paEC50)” value in [4] (paEC50 based on HepG2-serum free-DNL assay) is 4.5 fold. The molecule further came in with a Liver exposure in [4] (10 mg/kg oral once daily, HBV-infected chimeric humanized mice) of 740 nM. Moreover, the “increase in serum triglycerides” value in the data set on ACC (day 17 of treatment) came out at 30%. Moreover, the “reduction in liver triglycerides” value with ACC (day 29 of treatment) is recorded as 40%. Also, in the data set with ACC (qRT-PCR), the “liver mRNA expression level of ACACA” value is “statistically significant increase”, the “liver mRNA expression level of FASN” value is on record as “statistically significant increase”, the “liver mRNA expression level of SCD” value is “statistically significant increase” and the “liver mRNA expression level of SREBF1” value was “increased with ACC treatment albeit did not reach statistical significance”. Also, the “toxicity based on body weight change, serum ALT, and h-Alb levels” value in data set [5] is reported as “no evidence of toxicity”. Also, in the data set on DNL in HepG2 cells, the pEC50 is 8.18. Also, the pEC50 in data set [6] is 7.64.
In the case of `COc1ccccc1[C@H](Cn1c(=O)n(C(C)(C)C(=O)O)c(=O)c2c(C)c(-c3ncco3)sc21)OC1CCOCC1` [FIR, Firsocostat], the liver fat reduction in the data set on ACC1 and ACC2 (observed clinically) was ~ 30%. The DNL inhibition in the data set with ACC1 and ACC2 (partial target inhibition observed clinically) was ~ 70%.
As for `CC[C@H](C)C(=O)O[C@H]1C[C@@H](C)C=C2C=C[C@H](C)[C@H](CC[C@@H]3C[C@@H](O)CC(=O)O3)[C@H]21` [lovastatin], the HBsAg secretion entry in [7] is “significantly reduced”.
